According to patent publication US7709514B2, “Therapeutic molecules and methods-1” (Cortical Pty Ltd, priority 2002, dated 2010):

Experiments:
[1] = test system: IL-1 induced phosphorylation of ERK; assay: IL-1 induced phosphorylation (activation) of ERK, Western blotting; type: cell-based, human; conditions: compound 5 50 μM alone; S112 cells, IL-1 0.1 ng/ml, 30 minutes
Protocol: S112 human dermal fibroblasts cultured in RPMI (serum-free) medium were stimulated with recombinant human IL-1 0.1 ng/ml, as described herein, for 30 minutes, with or without the addition of dexamethasone 10^−9M or benzimidazol-2-one-5-pentanoate (compound 5) (50 μM). The phosphorylation (activation) of ERK was assessed using Western blotting with a mAb specific for the phosphorylated (activated) form of ERK. In brief, cells were disrupted by repeated aspiration through a 21-gauge needle. After incubation on ice for 10 min and microcentrifugation at 3000 rpm for 15 min (4° C.), the supernatants were removed, the protein concentration was determined, and the lysates were stored at −80° C. Equal amounts of cellular proteins were fractionated on 10% SDS-polyacrylamide electrophoresis gels and transferred to polyvinylidene difluoride membranes. Immunoblotting was performed using antibodies directed against phospho-p44/42 (ERK) and total p44142 according to the manufacturer's instructions. The intensity of ERK activation is proportional to the size and optical density (darkness) of the resulting blots. Total ERK blots serve as a loading control, such that changes in phosphorylated ERK represent changes in phosphorylation and not in total ERK protein.

[2] = test system: murine endotoxic shock model; assay: murine endotoxic shock model (LPS), cytokines by ELISA; type: in vivo, mice
Protocol: The activity of compound 5 was studied in the murine endotoxic shock model. This model has been previously shown to be dependent on MIF (21). Administration of a substance which inhibits the cytokine or biological activity of MIF would be expected to result in a reduction in serum levels of cytokines such as IL-1 or IL-6. Endotoxaemia was induced by intra-peritoneal injection of lipopolysaccharide (LPS) (15 mg/kg) in 400 μl saline. Mice were treated with a saline solution (control) only, a saline solution and LPS, or LPS and compound 5 at a dose of 15 mg/kg body weight, administered by intra-peritoneal injection at 24 hours, 12 hours and 1 hour before intra-peritoneal LPS injection. After 1.5 hours mice were humanely killed by CO2 inhalation then neck dislocation. Serum was obtained from blood obtained by cardiac puncture prior to death and measured for cytokines including interleukin 1 (IL-1) and interleukin 6 (IL-6) by ELISA. The production of IL-1 and IL-6 has been previously shown to be dependent on MIF (22). Macrophages were obtained by lavage of the peritoneal cavity using normal saline and placed into 24 well tissue culture plates for 18 hours in RPMI/10% FCS. The cultured peritoneal macrophage supernatants were then analysed for cytokines including IL-6. The peritoneal lavage supernatants were also analysed for cytokines including IL-6.
The effect of compound 5 was tested under a variety of conditions in animals exposed to endotoxic shock induced as above by the injection of 15 mg/kg LPS by intraperitoneal injection. In each case compounds were administered by intraperitoneal injection at a dose of 15 mg/kg. Compound 5 administration was associated with reductions in serum IL-1, IL-6, and TNF concentration whether administered by intraperitoneal injection (IP) or by oral gavage, and under a variety of administration regimens.

[3] = test system: murine antigen induced arthritis; assay: murine antigen-induced arthritis, histological score; type: in vivo, mice; conditions: 15 mg/kg IP once per 24 hours, day 28
Protocol: Antigen-induced arthritis was induced in mice. C57BL6/J male mice, aged 7-10 weeks old, were immunized on day 0 with 200 μg methylated BSA (mBSA) emulsified in 200 μl of Freund's complete adjuvant (FCA) injected subcutaneously into the flank skin. Mice were treated with compound 5, administered by intraperitoneal injection, once per 24 hours at a dose of 15 mg/kg body weight. After seven days, mice received 100 μg mBSA and 100 μl FCA by intradermal injection at the base of the tail. After a further 14 days, arthritis was induced by intra-articular injection of 30 μg mBSA in 10 μl of sterile saline into the left knee, the right knee being injected with sterile saline alone.
Arthritis was analysed histologically at day 28 after first immunisation. Knee joints were dissected and fixed in 10% buffered formalin for 7 days. Fixed tissues were decalcified for 3 weeks in 15% ethylene-diamine-tetra-acetic acid (EDTA), dehydrated and embedded in paraffin. Sagittal sections (5 μm) of the knee joint were stained with Safranin-O and counterstained with fast green/iron hematoxylin. Histological sections were scored from 0 to 3 for four parameters: Synovitis was defined as hyper-cellularity of the synovium including pannus formation. Joint space exudate was identified as leukocytes, discretely or in aggregates, in the joint space. Cartilage degradation was defined as the loss of Safranin-O staining of articular cartilage (0=full stained cartilage, 3=totally unstained cartilage). Bone damage was defined as the extent and depth of the subchondral bone invasion by pannus. A total score was also generated from the sum of these four parameters (maximum 12).

## CCCCCOC(=O)c1ccc2[nH]c(=O)[nH]c2c1 [Compound 5]
[1]
  ERK activation by IL-1: not inhibited
[2]; FIG. 5, LPS alone vs LPS with compound 5
  serum IL-1 concentration: marked reduction
[2]; IP injection 15 mg/kg at −24, −6, −1 h, LPS alone 42.49
  Serum IL-1 at 1.5 h, LPS + cpd: 39.82
[2]; IP injection 15 mg/kg at −24, −6, −1 h, LPS alone 786.6
  Serum IL-1 at 6 h, LPS + cpd: 170.2
[2]; IP injection 15 mg/kg at −24, −12, −1 h, LPS alone 484.8
  Serum IL-1 at 1.5 h, LPS + cpd: 283.8
[2]; IP injection 15 mg/kg at −24, −12, −1 h, LPS alone 92790
  Serum IL-6 at 1.5 h, LPS + cpd: 75260
[2]; IP injection 15 mg/kg at −1 h, LPS alone 215100
  Serum IL-6 at 6 h, LPS + cpd: 150300
[2]; IP injection 15 mg/kg at −18 h, LPS alone 301.5
  Serum IL-1 at 1.5 h, LPS + cpd: 105.9
[2]; IP injection 15 mg/kg at −18 h, LPS alone 4263
  Serum TNF at 1.5 h, LPS + cpd: 2422
[2]; LPS 15 mg/kg IP, compound 15 mg/kg IP at 24, 12 and 1 hour before LPS, 1.5 hours after LPS, LPS only 261.05
  Serum IL-6: 99.78 ng/mL
[2]; LPS 15 mg/kg IP, compound 15 mg/kg IP at 24, 12 and 1 hour before LPS, LPS only 16.11
  Peritoneal lavage IL-6: 7.07 ng/mL
[2]; LPS 15 mg/kg IP, compound 15 mg/kg IP at 24, 12 and 1 hour before LPS, macrophages cultured 18 hours, LPS only 3.40
  Cultured peritoneal macrophage IL-6: 1.33 ng/mL
[2]; LPS 15 mg/kg, IP or oral gavage, variety of administration regimens
  serum IL-1, IL-6, and TNF concentration: reductions
[2]; Oral gavage 5 mg/kg at −24 h, −1 h, LPS alone 237.0
  Serum IL-1 at 1.5 h, LPS + cpd: 182.5
[2]; Oral gavage 15 mg/kg at −24, −6, −1 h, LPS alone 103.7
  Serum IL-1 at 1.5 h, LPS + cpd: 47.1
[2]; Oral gavage 15 mg/kg at −24 h, LPS alone 292.0
  Serum IL-1 at 1.5 h, LPS + cpd: 152.6
[2]; Oral gavage 15 mg/kg at −24 h, LPS alone 121100
  Serum IL-6 at 1.5 h, LPS + cpd: 80250
[3]; FIG. 10a, p=0.0024
  total arthritis score: statistically significant reduction
[3]; FIG. 10b
  severity of all individual parameters of arthritis: Statistically significant reductions
